Assay results: paper PMC4643876, “Picomolar Inhibition of Plasmepsin V, an Essential Malaria Protease, Achieved Exploiting the Prime Region” (PLoS ONE, 2015)
Values joined by “and” are separate entries in the source; they are usually repeats but may differ in a detail not shown here. Equal values may be shown once. Read-outs that look alike come from different tables or passages of the source. * marks the point of attachment. DABCYL = CN(C)c1ccc(/N=N/c2ccc(C(=O)*)cc2)cc1; EDANS = O=S(=O)(O)c1cccc2c(NCCN*)cccc12

Assays:
Plasmepsin V (PmV) [1] = molecular target: T1, Plasmepsin V (PmV) (Plasmodium falciparum, UniProt Q8I6Z5); test: PmV inhibition, fluorimetric PExEl cleavage assay; type: biochemical
T1 construct: PmV was purified directly from parasites; made in house
Description: Saponin was added to culture to a final 0.05%; parasites were recovered via centrifugation at 4°C after 5 min of incubation on ice; parasite pellets were then washed twice in cold PBS and either immediately lysed or stored at -80°C until lysis. Parasites were lysed via three pulses of ultra-sonication of 10 sec duration, in PBS containing 0.5% Triton-X100 (TX-100). […] Quick washes of the resin were performed either in batches, or over columns, to remove unbound cellular material (four with ice-cold 0.5% TX-100 in PBS and a final one with cold PBS). Resin-bound PmV was stored in PBS at 4°C and used within 2–3 weeks, larger batches had Glycerol added to them, up to 10%, and were stored at -20°C for up to 5 months. […] Quality and purity of PmV batches were routinely confirmed by protein electrophoresis. Quantification of PmV was performed via densitometry analysis of stained protein SDS-PAGE gels relative to BSA standard curves.
(§1) PExEl cleavage activity was monitored by fluorimetric measurement of PExEl cleavage, as previously reported. […] PmV activity was performed at 37°C in 50 mM Tris-Maleate, pH 6.5, 50 mM NaCl, 0.05% TX-100, 2 mM DTT. Assays were routinely conducted in triplicate. Bead-bound enzyme was added to the reaction using ‘end-cut’ micropipette tips in order to facilitate sampling the suspension.
Inhibitory activities were measured in the presence of a substrate concentration of 3 μM by serial dilution of each compound in triplicates. […] Titration curves of the inhibitors were routinely composed of eleven points from 10 μM to 0.1 pM. PmV concentration was kept in the order of low picomolar (≤10 pM). […] Analysis of the half inhibitory activity (IC50) was performed by sigmoidal interpolation of the starting velocities of the hydrolytic reactions for each condition. Starting velocities were calculated on the initial linear range of the product progression curves. […] Data are presented with error bars indicating the standard deviation of three independent activity curves.

[2] = tested on: Plasmodium falciparum strain 3D7; test: Parasite growth inhibition by flow cytometry, strain 3D7; type: cell-based; conditions: asynchronous 3D7 cultures, about 4 days, 0.195–200 μM, flow cytometry
[3] = pH 7.4
PmV-GFP = molecular target: T2, PmV-GFP (Plasmodium falciparum, UniProt Q8I6Z5); test: Pull-down / co-precipitation of PmV-inhibitor complexes from DC6 lysates; type: binding
T2 construct: parasite cellular lysates of DC6 a clone that constitutively expresses PmV-GFP; expressed in transfected cells; host or cells: Plasmodium falciparum clone DC6 (3D7-derived; PmV-GFP under the native PmV promoter), crude lysate
Description: Pull-down experiments were performed using parasite cellular lysates of DC6 a clone that constitutively expresses PmV-GFP [15]. […] [i] […] An anti-GFP antibody, 3E6, was added with protein A-agarose as above described and incubated 1 h at 4°C, with gentle agitation. The resin was washed 3 times with cold PBS and then boiled in Laemmli sample buffer for later biotin detection in a dot-blot format. [ii] […] Incubation was carried out for 1 h at 4°C gently maintaining the beads in suspension. Then the resin was washed 3 times with cold PBS and boiled in Laemmli sample buffer for subsequent protein western blot analysis of the pull-down material.

Plasmepsin V (PmV) [4] = molecular target: T1, Plasmepsin V (PmV); test: PmV steady-state kinetics of substrate hydrolysis; type: biochemical
Description: as §1
Steady-state measurements of PmV substrate hydrolysis were analyzed assuming the widely accepted aspartic protease mechanism, E + S → ES → ET* → EP → E + P, where P is the product of the reaction; S is the substrate; E is the free enzyme; ES, ET* and EP denote the enzyme-substrate, the transition state and enzyme-product adducts, respectively. The measurement of steady-state velocity of product formation, v = d[P]/dt, yielded catalytic constants according to the classical Michaelis-Menten equation v = e * kcat *[S] / ([S] + K M), where e is enzyme concentration. In our experimental conditions the fluorescence of HETQ-EDANS (AnaSpec), the reaction product (P), was quantified by titration. PmV kinetics parameters were calculated using non-linear curve-fitting analyses from SigmaPlot on the basis of measurements with multiple substrate concentrations monitored until the completion of the reaction. […]

clone DC6 = test: Growth curve analysis over 10 days, clone DC6; type: cell-based, Plasmodium falciparum; design: growth rate (r): unit not given here; conditions: 0.75 μM Shield-1
Excerpt: (§2) Fig 14 PmV-GFP-DD clone G6 generation and characterization. (A) Creation of a PmV-GFP-DD chimera by homologous recombination. […] The plasmid contains sequence from the PmV ORF 3’ end in frame with GFP-DD [24]. Relative positions of BsrGI restriction sites (vertical bars) and the probe are indicated. (B) Southern blot of BsrGI-restricted DNA from the parental strain 3D7, the 3 drug cycles (Selection I, II, III), 3 of the isolated clones, among which G6 is number 3, and the transfected plasmid (at the far right) is shown. Arrows: endogenous gene (blue), and modified PmV locus (green). (C) Live microscopy of the clone expressing the cytosolic YFP-DD chimera (via episomally maintained plasmid) and G6 in presence or absence of 0.5 μM Shield-1. Top to Bottom: bright field (grey), Hoechst (blue), fluorescent proteins (green), Lysotracker (red), merges of the blue and green channels and of all three channels. (D) Western blot of total lysates of parasites at diverse concentrations of Shield-1 (0–1 μM): clone DC6, clone G6 and 3D7 expressing YFP-DD. PmV was detected with both anti-GFP and anti-PmV. BiP detection served as loading control. (E) Live microscopy of the G6 clone expressing the PmV-GFP-DD chimera at various Shield-1 concentrations (0–1 μM). (F) PmV levels from DC6 (green) and G6 (red) were quantified from blot (panel D) and plotted as ratio of PmV to BiP. The last point of the ratio is affected by a reduced BiP expression in 1 μM Shield-1. This is possibly due to the level of toxicity of this molecule at high concentrations. (G) Flow cytometry analysis of the GFP signal of PmV-GFP-DD (clone G6) in presence (green line) or absence (red line) of 0.75 μM Shield-1 in respect of PmV-GFP (clone DC6) (black line). The cellular levels of PmV-GFP(±DD) are similar in the presence 0.75 μM Shield-1 while PmV-GFP-DD is about 4 times less than PmV-GFP in the absence of Shield-1. (H) Growth curve analysis over 10 days for PmV-GFP-DD and DC6 in the presence or absence of 0.75 μM Shield-1.

clone G6 (PmV-GFP-DD) = test: Growth curve analysis over 10 days, clone G6; type: cell-based, Plasmodium falciparum; design: growth rate (r): unit not given here; conditions: 0.75 μM Shield-1
Excerpt: as §2

[5] = 3 μM HRPII-PExEl substrate, averages of not less than three inhibition curves, read-out: IC50

T1 sequence (Q8I6Z5 whole entry): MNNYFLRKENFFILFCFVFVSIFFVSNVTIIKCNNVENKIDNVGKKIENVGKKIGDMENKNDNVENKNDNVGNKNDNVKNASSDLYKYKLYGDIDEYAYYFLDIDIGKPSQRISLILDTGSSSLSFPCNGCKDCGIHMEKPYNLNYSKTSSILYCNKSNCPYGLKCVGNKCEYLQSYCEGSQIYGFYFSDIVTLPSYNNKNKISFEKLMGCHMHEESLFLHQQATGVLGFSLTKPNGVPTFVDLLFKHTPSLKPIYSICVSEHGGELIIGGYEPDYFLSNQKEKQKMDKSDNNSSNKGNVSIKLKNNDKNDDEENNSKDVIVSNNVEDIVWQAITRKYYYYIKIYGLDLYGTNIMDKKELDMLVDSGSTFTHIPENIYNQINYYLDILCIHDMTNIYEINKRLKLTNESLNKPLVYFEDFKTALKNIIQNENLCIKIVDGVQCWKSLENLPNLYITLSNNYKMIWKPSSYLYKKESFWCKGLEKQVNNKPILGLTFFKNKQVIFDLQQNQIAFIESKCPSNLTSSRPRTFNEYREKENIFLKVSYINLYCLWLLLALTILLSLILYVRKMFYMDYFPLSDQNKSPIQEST
T2 sequence (Q8I6Z5 whole entry): as above

Compound	Ki (Plasmepsin V (PmV) [1])	IC50 (Plasmepsin V (PmV) [1]; [5])	LD50 growth inhibition [2]	further results
CC[C@H](C)[C@H](NC(=O)[C@@H](N)CCCNC(=N)N)C(=O)N[C@@H](CC(C)C)C(O)CN[C@@H](C)C(=O)N[C@@H](CCC(=O)O)C(=O)N[C@@H](C)C(N)=O (mixture of isomers) [Compound 5]	0.35 nM	0.65 nM	> 200 µM	
CSCC[C@H](N)C(=O)N[C@@H](CC(C)C)C(=O)N[C@@H](CC(C)C)C(O)CN[C@@H](C)C(=O)N[C@@H](CCC(=O)O)C(=O)N[C@@H](C)C(=O)O (mixture of isomers) [Compound 16]		> 10000 nM	> 200 µM	IC50 (Plasmepsin V (PmV) [1]; 3 μM substrate, tested up to 10 μM): completely inactive
CC(C)C[C@H](NC(=O)[C@@H](N)CCCNC(=N)N)C(=O)N[C@@H](CC(C)C)C(O)CN[C@@H](C)C(=O)N[C@@H](CCC(=O)O)C(=O)N[C@@H](C)C(N)=O (mixture of isomers) [Compound 1]	0.2 nM	0.37 nM	> 200 µM	logD [3]: -4.28; competition of Compound 36 binding to PmV (PmV-GFP; 50 μM competitor): negatively affects the interaction between Compound 36 and PmV; IC50 (Plasmepsin V (PmV) [1]; 3 μM substrate, read-out: IC50): 0.367 nM; IC50 (Plasmepsin V (PmV) [1]; inhibitor added after the reaction was initiated, read-out: IC50): 0.329 nM; IC50 (Plasmepsin V (PmV) [1]; pre-mixing the enzyme with inhibitor, read-out: IC50): 0.367 nM; greater inhibition efficiency relative to WEHI916 (Plasmepsin V (PmV) [1]; side-by-side comparison): ~ 100 fold
DABCYL-LNKRLLHETQ-EDANS ({DABCYL}-LNKRLLHETQ-{EDANS}; SMILES CC(C)C[C@H](NC(=O)c1ccc(/N=N/c2ccc(N(C)C)cc2)cc1)C(=O)N[C@@H](CC(N)=O)C(=O)N[C@@H](CCCCN)C(=O)N[C@@H](CCCNC(=N)N)C(=O)N[C@@H](CC(C)C)C(=O)N[C@@H](CC(C)C)C(=O)N[C@@H](Cc1c[nH]cn1)C(=O)N[C@@H](CCC(=O)O)C(=O)N[C@H](C(=O)N[C@@H](CCC(N)=O)C(=O)NCCNc1cccc2c(S(=O)(=O)O)cccc12)[C@@H](C)O) [HRPII-derived fluorogenic substrate of PmV]				Km (Plasmepsin V (PmV) [4]): 3.48 µM; K M (Plasmepsin V (PmV) [4]; substrate 0.19 to 6 μM): 3.48 (±0.7) 10^−6 M
CC[C@H](C)[C@H](NC(=O)[C@@H](N)CCCNC(=N)N)C(=O)N[C@@H](CC(C)C)C(O)CN[C@@H](C)C(=O)N[C@@H](CCC(=O)O)C(=O)N[C@@H](C)C(=O)O (mixture of isomers) [Compound 6]	1.16 nM	2.16 nM	> 200 µM	IC50 increase compared to Compound 5 (Plasmepsin V (PmV) [1]): 1.3–3.5 fold
CC(=O)N[C@@H](CCCNC(=N)N)C(=O)N[C@@H](CC(C)C)C(=O)N[C@@H](CC(C)C)C(O)CN[C@@H](C)C(=O)N[C@@H](CCC(N)=O)C(=O)N[C@@H](C)C(N)=O (mixture of isomers) [Compound 35]	63.5 nM	118 nM	16.5 μM and ~ 16.5 μM	
CC(C)C[C@H](NC(=O)[C@@H](N)CCCNC(=N)N)C(=O)N[C@@H](CC(C)C)[C@@H](O)CN[C@@H](C)C(=O)N[C@@H](CCC(N)=O)C(=O)N[C@@H](C)C(N)=O [Compound 8a]	0.83 nM	1.55 nM	64.1 µM	IC50 increase compared to Compound 1 (Plasmepsin V (PmV) [1]): ~ 4 fold
CC(C)C[C@H](NC(=O)[C@@H](N)CCC(N)=O)C(=O)N[C@@H](CC(C)C)[C@@H](O)CN[C@@H](C)C(=O)N[C@@H](CCC(=O)O)C(=O)N[C@@H](C)C(=O)O [Compound 17a]	2360 nM	4390 nM	> 200 µM	
CC(C)C[C@H](NC(=O)[C@@H](N)CCCNC(=N)N)C(=O)N[C@@H](CC(C)C)[C@H](O)CN[C@@H](C)C(=O)N[C@@H](CCC(N)=O)C(=O)N[C@@H](C)C(N)=O [Compound 8b]			~ 120.5 μM	
CC(C)C[C@H](NC(=O)[C@@H](N)Cc1c[nH]c2ccccc12)C(=O)N[C@@H](CC(C)C)[C@@H](O)CN[C@@H](C)C(=O)N[C@@H](CCC(=O)O)C(=O)N[C@@H](C)C(N)=O [Compound 15a]	1380 nM	2570 nM	~ 100.5 μM	
CC[C@H](C(=O)N1CCCC[C@H]1C(=O)O[C@H](CCc1ccc(OC)c(OC)c1)c1cccc(OCCN2CCOCC2)c1)c1cc(OC)c(OC)c(OC)c1 [Shield-1]				doubling time (T) (clone DC6): 34.83 h; growth constant (k) (clone DC6): 0.0199; growth rate (r) (clone DC6): 2.01; doubling time (T) (clone G6 (PmV-GFP-DD)): 34.15 h; growth constant (k) (clone G6 (PmV-GFP-DD)): 0.0203; growth rate (r) (clone G6 (PmV-GFP-DD)): 2.05
CC(C)C[C@H](NC(=O)[C@H](CCCNC(=N)N)NC(=O)CCCNC(=O)CCCNC(=O)CCCC[C@@H]1SC[C@@H]2NC(=O)N[C@@H]21)C(=O)N[C@@H](CC(C)C)C(O)CN[C@@H](C)C(=O)N[C@@H](CCC(N)=O)C(=O)N[C@@H](C)C(=O)O (stereo partly drawn) [Compound 36]				interaction with PmV in pull-down / immuno-precipitation (PmV-GFP; DC6 lysate, 50 μM or streptavidin-resin bound): confirmed the interaction between our inhibitor and PmV
CCCCCCCC(=O)N[C@@H](CCCNC(=N)N)C(=O)N[C@@H](CC(C)C)C(=O)N[C@@H](CC(C)C)[C@@H](O)CN[C@@H](Cc1ccc(O)cc1)C(=O)N[C@@H](CCC(=O)O)C(=O)N[C@@H](C)C(N)=O [Compound 37a]	0.01 nM	0.023 nM	> 200 µM	fold more active than parent compound 7a (Plasmepsin V (PmV) [1]): more than 50 fold; IC50 (Plasmepsin V (PmV) [1]; 3 μM substrate, read-out: IC50): ~0.023 nM
CC(C)C[C@H](NC(=O)[C@@H](N)CCCNC(=N)N)C(=O)N[C@@H](CC(C)C)C(O)CN[C@@H](C)C(=O)N[C@@H](CCC(=O)O)C(=O)N[C@@H](C)C(=O)O (mixture of isomers) [Compound 4]	0.7 nM	1.31 nM	> 200 µM	IC50 increase compared to Compound 1 (Plasmepsin V (PmV) [1]): 1.3–3.5 fold
